Experimental data reported in patent publication US20250197388A1, “COMPOUNDS, PHARMACEUTICAL COMPOSITIONS AND METHODS FOR TREATING INFLAMMATORY BOWEL DISEASE” (FLAGSHIP PIONEERING INNOVATIONS VI, LLC, priority 2022, published 2025).

Experiments:
[1] = biological target: T1, Dectin-1b (Homo sapiens, UniProt Q9BXN2); assay: Dectin-1 assay, HEK-Blue Dectin-1b SEAP reporter cells stimulated with beta-glucan peptide (BGP); type: cell-based; conditions: HEK-Blue Dectin-1b cells; compounds at 1, 10 or 30 μM for 6 hours, then BGP 30 μg/mL 16-18 hours; SEAP adjusted by cell viability
T1 construct: host or cells: HEK-Blue Dectin-1b reporter cells (HEK293-derived)
T1 sequence (Q9BXN2 1-201 isoform Q9BXN2-2): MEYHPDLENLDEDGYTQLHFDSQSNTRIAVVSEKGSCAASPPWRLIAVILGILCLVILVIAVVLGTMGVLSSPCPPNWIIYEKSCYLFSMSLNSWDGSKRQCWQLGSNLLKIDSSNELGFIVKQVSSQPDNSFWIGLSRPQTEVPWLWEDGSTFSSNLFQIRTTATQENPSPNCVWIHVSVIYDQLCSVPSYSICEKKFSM
Procedure: Compounds described herein are added to mammalian cells for bioactivity assessment. The HEK-Blue Dectin-1b cells line (InVivoGen) releases a reporter protein (secreted embryonic alkaline phosphatase, SEAP) to the culture supernatant in response to Dectin-1 activation. HEK-Blue reporter cells were grown in DMEM culture media with 10% decomplemented fetal calf serum (InvivoGen, 1% Pen/Strep antibiotic (InvivoGen), 0.2% Normocin antibiotic (InvivoGen). On the day prior to the assay, cells were seeded in a 96 flat-bottom well plate at 50,000 cells/well and further incubated for 20 hours. On the day of the assay cells were incubated with 1 μM, 10 μM or 30 μM of the compounds described herein or with 1 μM of the SYKi IV Dectin-1b Inhibitor (Millipore) or with DMSO (vehicle control) for 6 hours, followed by the addition of beta-glucan peptide (BGP, a Dectin-1 ligand at 30 μg/mL) and incubation for 16-18 hours. After incubation was concluded, the cultures supernatants were collected and Dectin-1 related activity was assessed by measurement of the SEAP-reporter protein presence, using Quanti-Blue assay (Invivogen) and these values were adjusted by the Cell Viability levels that was assessed using the Cell-Titer-Glo2 Reagent (Promega).
Results represent cell number adjusted SEAP levels in a triplicate setting for each condition and cell numbers and viability corrections reflected less than 5% corrections. See, e.g., FIG. 1 for compound A-3.

[2] = test system: Zymosan-induced production of IL-12p40 in monocyte-derived dendritic cells; assay: Monocyte derived DC (MoDC) assay, Zymosan-induced IL-12p40 (Luminex/ELISA); type: cell-based, human
From the text: Monocyte derived DC (MoDC) were differentiated from healthy human donor derived CD14+ monocytes. Commercially available freshly prepared Leukopaks were obtained from healthy blood donor and kept refrigerated on ice before spin centrifuged and the pelleted cells are rinsed and resuspended with MACS buffer (Miltenyi Biotec). Next, CD14+ monocytes were purified using MultiMACS™ Cell24 Separator-Plus instrumentation and reagents according to the manufacturer (Miltenyi Biotec) instructions. The resulting purified CD14^+ cell fraction was washed, enumerated, and subsequently cryopreserved for later use. At the experiment first day cryopreserved CD14′ cells were thawed, rinsed with culture media, and then resuspended in culture media principally composed of RPMI (Invitrogen) supplemented with 10% v/v heat inactivated FBS. For generation of MoDC, these CD14^+ cells were enumerated and seeded into 75 cm^2 tissue culture flasks in 30 mL of culture media supplemented with GM-CSF (40-100 ng/mL) and IL-4 (25 ng/mL). Every other day, half of the culture media was replaced with fresh media (containing the same cytokine supplementation) and after 6-7 days of culture, fully differentiated and matured MoDC were obtained as confirmed by conventional Immuno-phenotype markers (levels of expression or absence of surface CD80, CD83, CD86, CD209, HLA-DR, CD14 & CD64) that were verified by flow-cytometry. Fully differentiated (mature) MoDCs, were seeded into 96 flat-well plates and incubated with a various concentration of the compound described herein, or with control solution (DMSO), or with the pharmacologic inhibitors Cyclosporin-A (CsA) and BAY 61-3606 (which is a known inhibitor of Syk kinase) for 6 hours. Next, the MoDC culture well were added with Dectin-1(CLEC7a1)-ligand (Zymosan at 5 μg/mL), or the Toll-like receptor agonist R848, and further incubated for 18-20 hours. After incubation concluded, culture supernatants were collected, and the levels of inflammatory cytokines and chemokines was measured in a triplicate setting for each condition by Luminex® multiplex assay (FIG. 2) or by ELISA (FIG. 3).

[3] = Compound interconversion monitored by 1H-NMR in neutral aqueous buffer; type: physicochemical; conditions: 37° C. in the neutral aqueous buffer
Procedure: This examples provide the kinetics of compounds A-2 and A-3. More specifically, A-6 is a mixture of compounds A-2 and A-3 and interconvert in solutions.
In this example, A-6 was combined with […] of Na3PO4, DCl, and D2O at a pH of 7-7.5. This solution was then monitored using 1H-NMR at 37° C.
Interconversion between compounds A-2 and A-3 was seen and monitored for 5 days. See, Table 1.

## CN1[C@@H](C(=O)O)CS[C@H]1[C@@H]1CSC(c2ccccc2O)=N1 (single isomer, unassigned) [Compound A-3]
[1]
  Activity: <30 µM
[2]; MoDC from healthy human donors 1, 2 and 3, 15.5 nM to 1 μM (FIGS. 6A-6C)
  inhibition of Zymosan-induced production of IL-12p40: inhibition
[2]; donors 1, 2 and 3, the highest concentration tested
  concentration of maximal inhibition of Zymosan-induced IL-12p40: 1 µM
[2]; primary human MoDC from healthy donors 5 and 6, 0.5 μM final concentration (FIGS. 11A, 11B)
  inhibition of zymosan-induced IL-12p40: does not achieve statistically significant inhibition
[3]
  equilibrium ratio of interconversion: about 1.5/1
  time to nearly reach interconversion equilibrium: about 7 hours
